# Measured values taken from patent US8513260B2, “Pyrazinylpyrazoles” (Bayer CropScience AG, priority 2009, dated 2013).
# Where two headings read alike, the source gives them in different places.
# Assays:
# [1] = logP by HPLC on reversed-phase columns (C 18), EEC Directive 79/831 Annex V.A8; type: physicochemical; details: reversed-phase C18 HPLC column, read-out: log P
# From the text: [table] The calibration is effected with unbranched alkan-2-ones (having 3 to 16 carbon atoms) with known logP values (logP values determined on the basis of the retention times by linear interpolation between two successive alkanones).
# [2] = tested on: adult engorged Boophilus microplus females of the SP-resistant Parkhurst strain; assay: Boophilus microplus (dip); type: in vivo; details: Rhipicephalus microplus, 168 h, after 7 days, laying of fertile eggs, read-out: efficacy
# Method: Boophilus microplus (dip)
# Test animals: adult engorged Boophilus microplus females of the SP-resistant Parkhurst strain
# Solvent: dimethyl sulphoxide
# 10 mg of active ingredient are dissolved in 0.5 ml of dimethyl sulphoxide. For the purpose of preparing a suitable formulation, the active ingredient solution is diluted with water to the concentration desired in each case. This active ingredient preparation is pipetted into tubes. 8-10 ticks are transferred into a further tube with holes. The tube is immersed into the active ingredient formulation, and all ticks are completely wetted. After the liquid has run out, the ticks are transferred onto filter discs in plastic dishes and stored in a climate-controlled room. The activity is assessed after 7 days by laying of fertile eggs. Eggs whose fertility is not outwardly visible are stored in glass tubes in a climate-controlled cabinet until the larvae hatch. Efficacy of 100% means that none of the ticks has laid any fertile eggs.
# Boophilus microplus = Boophilus microplus test (BOOPMI injection); type: in vivo; details: Rhipicephalus microplus, 168 h; 20 μg animal; injection into the abdomen; after 7 days, laying of fertile eggs; read-out: efficacy
# Method: Boophilus microplus Test (BOOPMI Injection) Solvent: dimethyl sulphoxide To prepare an appropriate active ingredient formulation, 10 mg of active ingredient are mixed with 0.5 ml of solvent and the concentrate is diluted with solvent to the desired concentration. The active ingredient solution is injected into the abdomen (Boophilus microplus), and the animals are transferred into dishes and stored in a climate-controlled room. The efficacy is assessed by laying of fertile eggs. After 7 days, the efficacy in % is determined. 100% means that none of the ticks has laid any fertile eggs.
# [3] = tested on: unfed adult fleas (Ctenocephalides felis); assay: Ctenocephalides felis test (CTECFE); type: in vivo; details: Ctenocephalides felis, 48 h; 100 ppm in citrated cow's blood; after 2 days; read-out: efficacy (kill)
# Method: Ctenocephalides felis Test ([…]) Solvent: 1 part by weight of dimethyl sulphoxide For the purpose of preparing an appropriate active ingredient formulation, 10 mg of active ingredient are mixed with 0.5 ml of dimethyl sulphoxide. A portion of the concentrate is diluted with citrated cow's blood and the desired concentration is established. About 20 unfed adult fleas (Ctenocephalides felis) are introduced into a chamber closed at the top and bottom with gauze. A metal cylinder, the bottom of which is closed with Parafilm, is placed onto the chamber. The cylinder contains the blood/active ingredient preparation, which can be imbibed by the fleas through the Parafilm membrane. After 2 days, the kill in % is determined. 100% means that all fleas have been killed; 0% means that none of the fleas have been killed.
# Lucilia cuprina larvae = assay: Lucilia cuprina test (LUCICU); type: in vivo; details: 48 h, treated horse meat, after 2 days, read-out: efficacy (kill)
# Method: (§1) Lucilia cuprina Test (LUCICU) Solvent: dimethyl sulphoxide To prepare an appropriate active ingredient formulation, 10 mg of active ingredient are mixed with 0.5 ml of dimethyl sulphoxide and the concentrate is diluted with water to the desired concentration. Vessels containing horse meat treated with the active ingredient preparation of the desired concentration are populated with about 20 Lucilia cuprina larvae. After 2 days, the kill in % is determined. 100% means that all of the larvae have been killed; 0% means that none of the larvae have been killed.
# adult Musca domestica = assay: Musca domestica test; type: in vivo; details: after 2 days
# Method: as §1, with “Musca domestica” for “Lucilia cuprina”, “Test” for “Test (LUCICU)”, “a sponge” for “horse meat”, “adult Musca domestica.” for “about 20 Lucilia cuprina larvae.”, “flies” for “larvae”
# [4] = tested on: larvae of the mustard beetle (Phaedon cochleariae); assay: Phaedon test (PHAECO spray treatment); type: in vivo; details: Phaedon cochleariae, 168 h, Chinese cabbage discs, after 7 days, read-out: efficacy
# Procedure, shortened: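 Chinese cabbage leaf discs were sprayed with compound formulated in acetone/dimethylformamide with alkylaryl polyglycol ether emulsifier and diluted in emulsifier-containing water. After drying, discs were populated with mustard beetle larvae. Efficacy (% larvae killed; 100% = all dead) was scored after 7 days.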
# [5] = tested on: red spider mite (Tetranychus urticae); assay: Tetranychus test, OP-resistant (TETRUR spray treatment); type: in vivo; details: Tetranychus urticae, foliar, 144 h, 500 g/ha, bean leaf discs, after 6 days, read-out: efficacy
# Procedure, shortened: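 Bean leaf discs (Phaseolus vulgaris) infested with all mite stages were sprayed with active ingredient diluted in emulsifier-containing water at the desired concentration. Mortality read after 6 days as % efficacy, where 100% = all mites killed and 0% = none killed.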
# [6] = tested on: green peach aphid (Myzus persicae); assay: Myzus test (MYZUPE spray treatment); type: in vivo; details: Myzus persicae, 144 h, Chinese cabbage discs, after 6 days, read-out: efficacy
# Method: Myzus Test (MYZUPE Spray Treatment) Solvent: 78 parts by weight of acetone • • 1.5 parts by weight of dimethylformamide Emulsifier: 0.5 part by weight of alkylaryl polyglycol ether To prepare an appropriate active ingredient preparation, 1 part by weight of active ingredient is mixed with the stated amounts of solvent and emulsifier, and the concentrate is diluted with emulsifier-containing water to the desired concentration. Discs of Chinese cabbage (Brassica pekinensis) infested by all stages of the green peach aphid (Myzus persicae) are sprayed with an active ingredient preparation of the desired concentration. After 6 days, the efficacy in % is determined. 100% means that all of the aphids have been destroyed; 0% means that none of the aphids have been destroyed.
# [7] = tested on: caterpillars of the armyworm (Spodoptera frugiperda); assay: Spodoptera frugiperda test (SPODFR spray treatment); type: in vivo; details: Spodoptera frugiperda, foliar, 168 h, maize leaf discs, after 7 days, read-out: efficacy
# Procedure, shortened: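 Maize leaf discs sprayed with the compound at the desired concentration, formulated in acetone/dimethylformamide with alkylaryl polyglycol ether emulsifier and diluted in water, then infested with armyworm caterpillars after drying. Efficacy read after 7 days as % caterpillars killed (100% = all dead, 0% = none).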
# [8] = tested on: Tick nymphs (Amblyomma hebraeum); assay: Amblyomma hebraeum test (AMBYHE); type: in vivo; details: 100 ppm; immersed one minute; after 42 days
# Method: Amblyomma hebraeum Test (AMBYHE) Solvent: dimethyl sulphoxide To prepare an appropriate active ingredient formulation, 10 mg of active ingredient are mixed with 0.5 ml of dimethyl sulphoxide and the concentrate is diluted with water to the desired concentration. Tick nymphs (Amblyomma hebraeum) are placed into perforated plastic beakers and immersed in the desired concentration for one minute. The ticks are transferred on filter paper into a Petri dish and stored in a climate-controlled cabinet. After 42 days, the kill in % is determined. 100% means that all of the ticks have been killed; 0% means that none of the ticks have been killed.
# [9] = pH 2.7, * LC-MS, acidic range pH 2.7, 0.1% aqueous formic acid and acetonitrile
"chromatographic logP ([1]; pH 7.8, *** LC-MS, neutral range pH 7.8, 0.001 molar aqueous ammonium hydrogencarbonate and acetonitrile)","chromatographic logP [1, 9]",SMILES,pest or weed control at 100 ppm [2],pest or weed control at 0.02 mg (Boophilus microplus),pest or weed control at 100 ppm [3],pest or weed control at 100 ppm (Lucilia cuprina larvae),efficacy (kill) (adult Musca domestica; 20 ppm),pest or weed control at 500 g/ha [4],pest or weed control at 500 g/ha [5],pest or weed control at 500 g/ha [6],pest or weed control at 500 g/ha [7],efficacy (kill) [8],efficacy (kill) (adult Musca domestica; 100 ppm)
3.4,–,COc1nccnc1-n1nc(C(F)(F)F)c(-c2ccc(Br)cc2)c1N [Ex. 2],100%,100%,90%,100%,80%,100%,100%,–,–,–,–
–,4.2,COc1nccnc1-n1nc(C(F)(F)F)c(-c2cc(C(F)(F)F)cc(C(F)(F)F)c2)c1N [Ex. 14],90%,100%,100%,100%,90%,100%,100%,100%,100%,–,–
–,3.14,COc1nccnc1-n1nc(C(F)(F)F)c(-c2cc(Cl)c3c(c2)OCO3)c1N [Ex. 48],100%,100%,100%,100%,90%,100%,100%,90%,100%,100%,–
–,2.26,COc1nccnc1-n1nc(C)c(-c2cc(Cl)c3c(c2)OCO3)c1N [Ex. 75],100%,100%,100%,100%,–,100%,100%,100%,100%,–,100%
–,2.57,CCc1nn(-c2nccnc2OC)c(N)c1-c1cc(Cl)c2c(c1)OCO2 [Ex. 76],100%,100%,90%,100%,–,100%,–,80%,83%,100%,80%
